# Laboratory results: US20220175779A1, “COMPOUNDS AGAINST CANCER BEARING TYROSINE KINASE INHIBITOR RESISTANT EGFR MUTATIONS” (Board of Regents, The University of Texas System, priority 2019, published 2022)
# Key:
# [1] = target: T1, Ba/F3 cells expressing EGFR A767insASV (Homo sapiens, UniProt P00533, DUP767-769, cells depend on it); experiment: Cell viability (Cell Titer Glo), Ba/F3 cells expressing A767insASV; type: cell-based; conditions: 72 hours of treatment, read-out: IC50 values, nM Average
# T1 construct: A767insASV|N/A|N/A|Addgene #32066
# T1 sequence (P00533 with tags, fused parts or gaps DUP767-769): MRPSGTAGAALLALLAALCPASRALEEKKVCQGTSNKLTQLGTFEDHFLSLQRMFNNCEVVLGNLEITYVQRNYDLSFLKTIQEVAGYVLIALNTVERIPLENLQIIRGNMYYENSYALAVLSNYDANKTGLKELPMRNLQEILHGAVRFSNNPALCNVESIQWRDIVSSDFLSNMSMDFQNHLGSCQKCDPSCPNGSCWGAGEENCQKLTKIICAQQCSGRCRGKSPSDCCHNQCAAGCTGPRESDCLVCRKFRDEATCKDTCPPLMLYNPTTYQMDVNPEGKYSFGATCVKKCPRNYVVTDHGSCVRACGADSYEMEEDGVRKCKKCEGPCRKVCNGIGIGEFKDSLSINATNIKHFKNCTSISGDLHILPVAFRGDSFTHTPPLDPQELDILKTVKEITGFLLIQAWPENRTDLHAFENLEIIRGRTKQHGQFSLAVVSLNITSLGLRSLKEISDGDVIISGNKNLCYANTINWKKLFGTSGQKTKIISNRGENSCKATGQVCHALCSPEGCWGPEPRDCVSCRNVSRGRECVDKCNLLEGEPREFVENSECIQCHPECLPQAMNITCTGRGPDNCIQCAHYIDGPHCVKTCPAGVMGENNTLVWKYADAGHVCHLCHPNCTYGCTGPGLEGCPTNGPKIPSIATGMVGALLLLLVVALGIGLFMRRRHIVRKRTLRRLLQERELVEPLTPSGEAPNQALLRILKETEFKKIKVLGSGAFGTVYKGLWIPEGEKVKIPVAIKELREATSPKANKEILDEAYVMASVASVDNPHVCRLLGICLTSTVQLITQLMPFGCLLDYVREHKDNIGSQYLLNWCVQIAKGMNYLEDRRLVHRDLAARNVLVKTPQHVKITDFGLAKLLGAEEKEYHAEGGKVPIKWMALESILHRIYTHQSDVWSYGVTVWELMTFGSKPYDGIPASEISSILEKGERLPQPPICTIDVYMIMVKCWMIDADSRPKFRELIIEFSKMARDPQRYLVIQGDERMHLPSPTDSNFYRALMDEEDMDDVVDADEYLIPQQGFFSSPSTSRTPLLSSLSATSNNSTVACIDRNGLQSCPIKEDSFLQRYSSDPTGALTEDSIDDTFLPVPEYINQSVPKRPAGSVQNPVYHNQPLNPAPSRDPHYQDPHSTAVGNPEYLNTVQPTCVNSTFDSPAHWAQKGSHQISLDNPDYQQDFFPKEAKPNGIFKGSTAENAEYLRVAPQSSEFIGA
# Experimental: Cell viability was determined by the Cell Titer Glo assay.
# Briefly, stable Ba/F3 cell lines were generated by retroviral transduction of Ba/F3 cell line for 12 hours. […] Three days after transduction, 2 μg/ml puromycin (Invitrogen) was added to the RPMI media. Cell lines were then grown in the absence of IL-3 for two weeks and cell viability was assessed every three days using the Cell Titer Glo assay (Progema).
# Briefly, 2000-3000 cells per well were plated in 384-well plates (Greiner Bio-One) in technical triplicate. Cells were treated with seven different concentrations of tyrosine kinase inhibitors or vehicle alone at a final volume of 40 μL per well. After 3 days, 11 μL of Cell Titer Glo was added to each well. Plates were shaken for 15 minutes, and bioluminescence was determined using a FLUOstar OPTIMA multi-mode micro-plate reader (BMG LABTECH). Bioluminescence values were normalized to DMSO treated cells, and normalized values were plotted in GraphPad Prism using non-linear regression fit to normalized data with a variable slope.
# EGFR G719X/T790M = experiment: In vitro sensitivity of T790M acquired with an exon 18 point mutation; type: cell-based; conditions: T790M acquired with an exon 18 point mutation (G719X/T790M)
# Experimental: Thus, in certain aspects, the subject is determined to not have a mutation at EGFR C797 and/or T790, such as C797S and/or T790M. […] However, in certain aspects, L858R/T790M/C797S, Exon 19 deletion/T790M/C797s, and exon 20 insertions+ C797S or T790M mutants are resistant to EGFR TKIs.
structure (smiles),measurement,setting,value
"C=CC(=O)N1CCC(Oc2cc3c(Nc4ccc(Cl)c(Cl)c4F)ncnc3cc2OC)CC1 [Poziotinib, 1-[4-[4-(3,4-dichloro-2-fluoroanilino)-7-methoxyquinazolin-6-yl]oxypiperidin-1-yl]prop-2-en-1-one]",GI50,[1],1.62 nM
same,sensitivity in vitro,EGFR G719X/T790M,remain sensitive
